The values below come from patent US20150087722A1, “TREATMENT FOR BREAST TUMOR CELL METASTASIS” (China Medical University, priority 2012, published 2015).

Format in all cases: cell-based, human
In test [1] the test system is MMP-2, MMP-9, uPA, uPAR, TIMP-1, TIMP-2, PAI-1 in breast tumor cells. The test is described as follows: western blotting of metastasis-related proteins. Particulars: 0.5, 1 and 2 μM, 24 h, with dose increasing. The procedure:
The steps of western blotting include: washing cells with PBS twice at 4° C.; adding a lysis buffer and rubbing the cells by a rubbr policeman so as to lyse cells; putting the lysed cell solution into a 1.5 ml microcentrifuge tube and shaking for 1 min; centrifuging at 12000 rpm for 10 min and taking the supernatant; measuring concentration of the protein through a Bio-Rad protein assay kit; and storing the remained extracted protein solution at −70° C.; taking 100 μg protein solution and adding a SDS/protein loading buffer having the same volume, where the SDS/protein loading buffer has a concentration two times larger than the protein solution; boiling the mixture of the protein solution and the SDS/protein loading buffer at 100° C. for 10 min; cooling and loading the protein samples in each hole of gel; adjusting the voltage to 100 V and running the protein samples on the gel until the tracking dye in the sample buffer reaches the bottom of the gel; and subsequently transferring the protein from the gel using electrophoresis. […] Then luminescence image equipment was used, where the PVDF was placed onto a black metal plate by a plastic pincer and the face including protein was upwards, a 1:1 mixed Chemiluminesent Substrate was added into the membrane and the exposure time depends on the fluorescence intensity of antibodies. […]
For orientation: In western blotting, separated proteins are transferred to a membrane and probed.

The subject of test [2] is MMP-9, MMP2 and uPA in breast tumor cells MDA-MB-231. The test is described as follows: Zymography enzyme activity assay. Particulars: MDA-MB-231, with dose increasing, FIG. 8B. The source says: Referring to FIG. 8B, the Zymography enzyme activity assay was used to detect effect of the compound II in different doses on enzyme activities of the MMP-9, MMP2 and uPA in the breast tumor cells MDA-MB-231. Moreover, referring to FIG. 9, the Zymography enzyme activity assay was used to detect effect of the compound I on enzyme activities of the MMP-9 and MMP2 in the human normal breast cells MCF-10A stimulated by TNF-α/TGF-β. In the Zymography enzyme activity assay, the cells (1×10^6) were planted in a 6-well plate. The next day after the cells were adhered to the wall, the cells were cultured in a serum free DMEM culture medium at an atmosphere of 5% CO2 in an incubator at 37° C. for 24 h. The compound II in different doses were added into the DMEM culture medium. In other test groups, the compound I was added, TNF-α/TGF-β were added or the compound I and TNF-α/TGF-β were added into the DMEM culture medium, wherein the concentration of compound I and TNF-α/TGF-β were 2 mM and 10 ng/ml, respectively. The cells were cultured in the culture medium for 2 h and then washed with PBS. The cell culture medium was putted into a microcentrifuge tube and centrifuged for 10 min at 1500 rpm. The supernatant was taken to perform a protein gel electrophoresis (SDS-PAGE), so as to separate the proteins. […]

The test system of test [3] is breast tumor cells MDA-MB-231. In words: wound scratching assay (cell migration). The procedure:
Referring to FIG. 14, the wound scratching assay was performed to analysis effect of the compound II in different doses on tumor cell metastasis. In the wound scratching assay for observing cell migration, the cells MDA-MB-231 (3×10^5) were planted in a 12-well plate, and the next day the cells were washed with PBS twice. The original culture medium then was replaced by 1% FBS cell culture medium. The next day a space was scratched at the bottom of the well. The cell culture medium was removed and the cells were washed with PBS twice. 1% FBS cell culture medium and the compound II of different concentrations were added and photographs were taken after 0, 12, 24 and 36 h so as to observe migration of cells. After the reaction, the cells were fixed for 30 min using 75% ice alcohol. After the alcohol was completely volatilized, the cells were stained with Giemsa Stain. The migration number of cells was counted in three random fields (200×) under the microscope (Lin et al., 2008). […] After the breast tumor cells were treated for 0, 12, 24 and 36 h, the quantitative result of effect of the compound II on metastasis of breast tumor cells MDA-MD-231 was observed, and the data results were represented by mean±SD values, where n=3.

The structures appear in SMILES notation.

For the compound `COC1=C(OC)C(=O)C(C)=C(C)C1=O` [compound II], in test [1], the “expression amount of TIMP-1, TIMP-2 and PAI-1” value is recorded as “increased”; the “expression of MMP-2, MMP-9, uPA and uPAR” value is on record as “inhibited”. The “enzyme activities of MMP-2, MMP-9 and uPA” value in test [2] is “decreased”. The “breast tumor cells migrated” value in test [3] (0.5 μM, in 12-24 h) is 60-70%. The “migration capability of breast tumor cells” value in test [3] (concentration above 1 μM) is listed as “significantly inhibited”.
